The record followed here is US8158810B2 (Gilead Sciences, Inc., priority 2006, dated 2012).

Structures are written as SMILES.

One experiment has as its target T1, hMAO-A (Homo sapiens, UniProt P21397).
T1 construct: purchased Sigma M7316
T1 sequence (P21397 1-527): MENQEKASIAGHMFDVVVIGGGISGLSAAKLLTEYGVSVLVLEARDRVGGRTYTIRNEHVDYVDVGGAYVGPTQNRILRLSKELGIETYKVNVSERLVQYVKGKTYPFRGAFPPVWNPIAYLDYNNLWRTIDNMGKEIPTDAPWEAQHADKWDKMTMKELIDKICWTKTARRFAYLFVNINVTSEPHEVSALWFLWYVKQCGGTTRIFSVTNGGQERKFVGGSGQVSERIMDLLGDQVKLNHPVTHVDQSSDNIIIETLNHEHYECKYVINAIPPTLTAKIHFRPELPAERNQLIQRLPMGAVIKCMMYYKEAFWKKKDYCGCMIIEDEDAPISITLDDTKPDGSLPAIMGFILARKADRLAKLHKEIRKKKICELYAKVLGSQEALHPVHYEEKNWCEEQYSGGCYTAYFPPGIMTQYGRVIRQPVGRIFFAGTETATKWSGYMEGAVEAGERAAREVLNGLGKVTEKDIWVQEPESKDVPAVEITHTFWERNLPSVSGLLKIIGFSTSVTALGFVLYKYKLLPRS
Briefly: MAO-A inhibition assay. Type of experiment: biochemical. As to conditions: No = no inhibition; for hMAO-A inhibition up to 10 μM: printed in the IC50 hMAO-A column. The procedure:
(§1) MAO-A (Sigma M7316) and MAO-B (Sigma M7441) inhibition assays were conducted in 96-well micro-plates according to the method described by Zhou et al. [Analytical Biochemistry 253, 169-174, 1997]. […] Reactions were initiated by the addition of a pre-mixed solution of tyramine, horseradish peroxidase and Amplex Red, and were allowed to proceed at 37° C. for 30 min. Enzyme activities were determined by measuring absorbance at 570 nm (SpectralMax Plate reader), absorbance of oxidized Amplex Red generated by this horseradish peroxidase-coupled reaction. Nonspecifically formed products were determined in the presence of 2 and 10 µM clorgyline and deprenyl for MAO-A and MAO-B, respectively. IC50 values were determined by fitting concentration-inhibition data to sigmoidal dose-response curves with two-floating parameters: IC50 and Hill coefficient.

A further experiment addresses T2, hMAO-B (Homo sapiens, UniProt P27338).
T2 construct: purchased Sigma M7441
T2 sequence (P27338 1-520): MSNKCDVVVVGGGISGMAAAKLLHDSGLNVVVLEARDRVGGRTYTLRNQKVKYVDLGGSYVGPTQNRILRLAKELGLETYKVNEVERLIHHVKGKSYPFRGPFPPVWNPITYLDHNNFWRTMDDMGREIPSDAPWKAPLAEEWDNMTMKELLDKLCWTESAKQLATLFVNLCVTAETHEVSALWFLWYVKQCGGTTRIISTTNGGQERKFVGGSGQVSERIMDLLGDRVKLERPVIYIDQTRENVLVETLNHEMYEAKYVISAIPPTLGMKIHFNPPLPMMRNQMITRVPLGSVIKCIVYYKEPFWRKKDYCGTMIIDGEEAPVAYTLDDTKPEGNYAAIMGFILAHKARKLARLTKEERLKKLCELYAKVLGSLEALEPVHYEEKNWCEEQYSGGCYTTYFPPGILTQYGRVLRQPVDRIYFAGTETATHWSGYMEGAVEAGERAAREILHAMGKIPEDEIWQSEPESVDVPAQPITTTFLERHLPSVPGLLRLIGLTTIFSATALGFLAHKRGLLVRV
Briefly: MAO-B inhibition assay. The settings on record: No = no inhibition; for hMAO-B inhibition at 10 μM: printed in the IC50 hMAO-B column. The experiment is classed as biochemical. The procedure:
as §1

On to `O=c1c(-c2ccc(O)cc2)coc2cc(OCc3noc(-c4ccc(F)cc4)n3)ccc12` [PT-11, 7-{[5-(4-fluorophenyl)(1,2,4-oxadiazol-3-yl)]methoxy}-3-(4-hydroxyphenyl)chromen-4-one], for which the “hMAO-A inhibition up to 10 μM” value on hMAO-A is given as “No”. Besides, on hMAO-B (listed as PT-104, 10 µM), the “hMAO-B inhibition at 10 μM” value is given as “No”. For `O=c1c(-c2ccc(O)cc2)coc2cc(OCc3coc(-c4cccc(C(F)(F)F)c4)n3)ccc12` [PT-12, 3-(4-hydroxyphenyl)-7-({2-[3-(trifluoromethyl)phenyl](1,3-oxazol-4-yl)}methoxy)chromen-4-one], the “hMAO-A inhibition up to 10 μM” value on hMAO-A is listed as “No”. Besides, on hMAO-B, the “hMAO-B inhibition at 10 μM” value is “No”.

Turning to `O=c1c(-c2ccc(O)cc2)coc2cc(OCc3coc(-c4cc(F)cc(C(F)(F)F)c4)n3)ccc12` [PT-13, 7-({2-[5-fluoro-3-(trifluoromethyl)phenyl](1,3-oxazol-4-yl)}methoxy)-3-(4-hydroxyphenyl)chromen-4-one], the “hMAO-A inhibition up to 10 μM” value at hMAO-A is reported as “No”. The “hMAO-B inhibition at 10 μM” value at hMAO-B is “No”. For the compound `O=c1c(-c2ccc(O)cc2)coc2cc(OCc3coc(-c4cc(F)cc(F)c4)n3)ccc12` [PT-14, 7-{[2-(3,5-difluorophenyl)(1,3-oxazol-4-yl)]methoxy}-3-(4-hydroxyphenyl)chromen-4-one], the “hMAO-A inhibition up to 10 μM” value on hMAO-A is recorded as “No”. Further, on hMAO-B, the “hMAO-B inhibition at 10 μM” value is “No”. As for `O=c1c(-c2ccc(O)cc2)coc2cc(OCc3coc(-c4ccc(F)cc4)n3)ccc12` [PT-16, 7-{[2-(4-fluorophenyl)(1,3-oxazol-4-yl)]methoxy}-3-(4-hydroxyphenyl)chromen-4-one], at hMAO-A, the “hMAO-A inhibition up to 10 μM” value is on record as “No”. Also, the “hMAO-B inhibition at 10 μM” value at hMAO-B is “No”. Take `O=c1c(-c2ccc(O)cc2)coc2cc(OCc3noc(-c4ccccc4)n3)ccc12` [PT-24, 3-(4-hydroxyphenyl)-7-[(5-phenyl(1,2,4-oxadiazol-3-yl))methoxy]chromen-4-one]: the “hMAO-A inhibition up to 40 μM” value at hMAO-A was “No”. Besides, the “hMAO-B inhibition up to 40 μM” value at hMAO-B (up to 40 μM) is “No”. Consider `N#Cc1cccc(COc2ccc3c(=O)c(-c4ccc(O)cc4)coc3c2)c1` [PT-25, 3-{[3-(4-hydroxyphenyl)-4-oxochromen-7-yloxy]methyl}benzenecarbonitrile], for which the “hMAO-A inhibition up to 10 μM” value on hMAO-A is listed as “No”. At hMAO-B, the “hMAO-B inhibition up to 10 μM” value was “No”. With `COc1ccc(COc2ccc3c(=O)c(-c4ccc(O)cc4)coc3c2)cc1C(F)(F)F` [PT-27, 3-(4-hydroxyphenyl)-7-{[4-methoxy-3-(trifluoromethyl)phenyl]methoxy}chromen-4-one], the “hMAO-A inhibition up to 10 μM” value on hMAO-A is “No”. Further, the “hMAO-B inhibition up to 10 μM” value at hMAO-B was “No”. Turning to `O=c1c(-c2ccc(O)cc2)coc2cc(OCc3noc(-c4cc(F)cc(C(F)(F)F)c4)n3)ccc12` [PT-29, 7-({5-[3-fluoro-5-(trifluoromethyl)phenyl](1,2,4-oxadiazol-3-yl)}methoxy)-3-(4-hydroxyphenyl)chromen-4-one], at hMAO-A, the “hMAO-A inhibition up to 30 μM” value is listed as “No”. The “hMAO-B inhibition up to 30 μM” value at hMAO-B is on record as “No”.

In the case of `O=c1c(-c2ccc(O)cc2)coc2cc(OCc3noc(-c4ccc(F)c(C(F)(F)F)c4)n3)ccc12` [PT-30, 7-({5-[4-fluoro-3-(trifluoromethyl)phenyl](1,2,4-oxadiazol-3-yl)}methoxy)-3-(4-hydroxyphenyl)chromen-4-one], on hMAO-A, the “hMAO-A inhibition up to 10 μM” value is reported as “No”. Further, the “hMAO-B inhibition up to 10 μM” value at hMAO-B is reported as “No”.

With `O=c1c(-c2ccc(O)cc2)coc2cc(OCc3noc(-c4cc(C(F)(F)F)ccc4C(F)(F)F)n3)ccc12` [PT-31, 7-({5-[2,5-bis(trifluoromethyl)phenyl](1,2,4-oxadiazol-3-yl)}methoxy)-3-(4-hydroxyphenyl)chromen-4-one], the “hMAO-A inhibition up to 10 μM” value on hMAO-A is “No”. In addition, the “hMAO-B inhibition up to 10 μM” value on hMAO-B is “No”.

Consider `C=CCOC(=O)c1cccc(-c2nc(COc3ccc4c(=O)c(-c5ccc(O)cc5)coc4c3)no2)c1` [PT-32, prop-2-enyl 3-(3-{[3-(4-hydroxyphenyl)-4-oxochromen-7-yloxy]methyl}-1,2,4-oxadiazol-5-yl)benzoate], for which the “hMAO-A inhibition up to 10 μM” value at hMAO-A is listed as “No”. On hMAO-B, the “hMAO-B inhibition up to 10 μM” value is on record as “No”. On to `O=C(O)c1ccc(COc2ccc3c(=O)c(-c4ccc(O)cc4)coc3c2)cc1` [PT-36, 4-{[3-(4-hydroxyphenyl)-4-oxochromen-7-yloxy]methyl}benzoic acid], for which the “hMAO-A inhibition up to 40 μM” value at hMAO-A was “No”. Also, on hMAO-B, the “hMAO-B inhibition up to 30 μM” value is given as “No”.

As for `NC(=O)c1ccc(COc2ccc3c(=O)c(-c4ccc(O)cc4)coc3c2)cc1` [PT-37, 4-{[3-(4-hydroxyphenyl)-4-oxochromen-7-yloxy]methyl}benzamide], the “hMAO-A inhibition up to 30 μM” value on hMAO-A was “No”. Moreover, the “hMAO-B inhibition up to 30 μM” value at hMAO-B was “No”. Take `O=c1c(-c2ccc(O)cc2)coc2cc(OCc3noc(-c4ccc(C(F)(F)F)cc4)n3)ccc12` [PT-38, 3-(4-hydroxyphenyl)-7-({5-[4-(trifluoromethyl)phenyl](1,2,4-oxadiazol-3-yl)}methoxy)chromen-4-one]: on hMAO-A, the “hMAO-A inhibition up to 30 μM” value is “No”. The “hMAO-B inhibition up to 30 μM” value at hMAO-B was “No”. `O=c1c(-c2ccc(O)cc2)coc2cc(OCc3noc(-c4cc(C(F)(F)F)cc(C(F)(F)F)c4)n3)ccc12` [PT-39, 7-({5-[3,5-bis(trifluoromethyl)phenyl](1,2,4-oxadiazol-3-yl)}methoxy)-3-(4-hydroxyphenyl)chromen-4-one]: at hMAO-A, the “hMAO-A inhibition up to 10 μM” value is “No”. Also, the “hMAO-B inhibition up to 10 μM” value at hMAO-B is recorded as “No”.

As for `N#Cc1cccc(-c2nc(COc3ccc4c(=O)c(-c5ccc(O)cc5)coc4c3)no2)c1` [PT-40, 3-(3-{[3-(4-hydroxyphenyl)-4-oxochromen-7-yloxy]methyl}-1,2,4-oxadiazol-5-yl)benzenecarbonitrile], on hMAO-A, the “hMAO-A inhibition up to 10 μM” value was “No”. The “hMAO-B inhibition up to 10 μM” value on hMAO-B is reported as “No”. In the case of `O=C(O)c1cccc(-c2nc(COc3ccc4c(=O)c(-c5ccc(O)cc5)coc4c3)no2)c1` [PT-41, 3-(3-{[3-(4-hydroxyphenyl)-4-oxochromen-7-yloxy]methyl}-1,2,4-oxadiazol-5-yl)benzoic acid], the “hMAO-A inhibition up to 10 μM” value at hMAO-A is recorded as “No”. At hMAO-B, the “hMAO-B inhibition up to 10 μM” value is recorded as “No”. Consider `O=C(O)c1coc(COc2ccc3c(=O)c(-c4ccc(O)cc4)coc3c2)n1` [PT-102, 2-{[3-(4-hydroxyphenyl)-4-oxochromen-7-yloxy]methyl}-1,3-oxazole-4-carboxylic acid], for which the “hMAO-A inhibition up to 10 μM” value on hMAO-A is recorded as “No”. On the same count and under the same terms, the result for `C[C@H](NC(=O)COc1ccc2c(=O)c(-c3ccc(O)cc3)coc2c1)c1ccc(F)cc1` [PT-103, N-[(1S)-1-(4-fluorophenyl)ethyl]-2-[3-(4-hydroxyphenyl)-4-oxochromen-7-yloxy]acetamide] reads 36%. Same read-out and setting: the result for `O=c1c(-c2ccc(O)cc2)coc2cc(OC[C@H](O)Cc3ccccc3)ccc12` [PT-109, 7-((2R)-2-hydroxy-3-phenylpropoxy)-3-(4-hydroxyphenyl)chromen-4-one] reads 26%. Same read-out and setting: the result for `CS(=O)(=O)Nc1ccc(-c2c(O)oc3cc(OCc4cccc(C(=O)O)c4)ccc3c2=O)cc1` [PT-111, 3-[(2-hydroxy-3-{4-[(methylsulfonyl)amino]phenyl}-4-oxochromen-7-yloxy)methyl]-benzoic acid] reads “No”.
